Assay results taken from a melting point compilation (Tetko et al.; mined from patent text by program, amines drawn as free bases though some values may be those of a salt).
Starred links: 1 amine or outer side, 2 acyl side, 3 side chain; linkers in the order of their positions; H or OH if unused. Non-standard residues stand in square brackets, D forms with d. Residues, ends and D or L forms follow the SMILES beside them. *: point of attachment. γGlu = O=C(O)[CH](CCC(=O)[*:2])N[*:1]; Lauroyl = CCCCCCCCCCCC(=O)*

Row | melting point | SMILES
1 | 122 °C | CCOC(=O)CN1CCN(c2ccccc2[N+](=O)[O-])CC1
2 | > 260 °C | COc1cc2c3c([nH]c2cc1O)-c1ccccc1C3=O
3 | 155 to 158 °C | CCCCOCCOc1ccc(-c2ccc3c(c2)C=C(C(=O)O)CCN3c2csc(C)n2)cc1
4 | 75 °C | CCCCCCCCOc1ncc(-c2ccc(OC(=O)[C@H]3CCCO3)cc2)cn1
5 | 183 to 185 °C | Cc1ccc([C@H]2O[C@@H]2C(N)=O)cc1
6 | 204 to 206 °C | CCCCCC(CC(=O)Nc1cc(C(N)=O)ccc1C(C)(C)C)c1ccc(C(=O)O)cc1OC (configuration not stated)
7 | 207 °C | NS(=O)(=O)c1ccc(-c2cc3n(c2-c2ccc(F)cc2)CCC3)cc1
8 | 163 to 164 °C | CN(C(CCn1c(=O)cc(C(F)(F)F)[nH]c1=O)C(=O)NO)S(=O)(=O)c1ccc(Oc2ccc(F)cc2)cc1 (configuration not stated)
9 | 117 to 118 °C | CC(C)(C)OC(=O)N1CCN(C(=O)OC(C)(C)C)C1=S
10 | 227 to 228 °C | CC(=O)Nc1csc(-c2ccc3c(=O)n(CC(C)C)c(CNC(=O)OC(C)(C)C)c(-c4ccccc4)c3c2)n1
11 | 196 °C | CCc1ccc(Oc2cc3c(cc2Cl)C=C(C(=O)O)C(C(F)(F)F)O3)cc1 (configuration not stated)
12 | 185 to 186 °C | O=C(O)c1snc(-c2cccc(Cl)c2)c1C(=O)O
13 | 91 to 92 °C | CCOC(=O)c1c2ccc(Cl)cc2c(-c2ccccc2)n1CCCOS(C)(=O)=O
14 | 152 to 153 °C | CCOc1nn(Cc2ccc(OCCn3ncc4ccccc4c3=O)cc2)cc1CCC(=O)O
15 | 245 to 246 °C | Nc1nnc2ccc(N3CCCCC3)nn12
16 | 110 to 112 °C | CCC(C)Cn1c(=O)n(C)c(=O)c2c1nc(C)n2C(=O)OC (configuration not stated)
17 | 310 to 330 °C | CC1=C(c2ccccc2)CCC(=O)N1
18 | 193 to 196 °C | CC(C(=O)O)c1c(C(=O)c2ccccc2)[nH]c2cc(Cl)ccc12 (configuration not stated)
19 | 149 to 158 °C | Clc1cccc(Cl)c1NCC1CC1

Row | melting point | SMILES
20 | 185 to 186 °C | CC1(N)CN(c2c(F)cc3c(=O)c(C(=O)O)cn(-c4ccc(F)cc4F)c3c2F)C1
21 | 66 to 67 °C | COc1ccc2sc(C(=O)OCc3ccccc3)c(OCc3ccccc3)c2c1
22 | 89.8 to 93 °C | CCCCCCN(CCCC(=O)Nc1c(SC)nc(C)nc1N(CC)CC)c1ccc(Br)cc1
23 | 116 to 118 °C | CC(=CC(=O)c1cccnc1)N1CCCC1
24 | 135 to 136 °C | CCOC(=O)c1coc2ccc(-c3nnc(C)o3)cc12
25 | 156 to 159 °C | O=C1CCCc2ncccc2N1
26 | 118 to 120 °C | COC(=O)c1ccc(CN(C(C)C)S(=O)(=O)c2ccc(F)cc2)cc1
27 | 156 to 157 °C | COc1cccc(CNC(=O)c2nc3scc(COCc4ccc(CO)cc4)c3c(=O)[nH]2)c1
28 | 187 to 188 °C | CCOC(=O)COc1ccc2cc(-c3cc4ccccc4s3)ccc2c1Cl
29 | 83 to 84 °C | CN(Cc1ncc(C(F)(F)F)cc1Cl)C(=O)c1c(Cl)cccc1Cl
30 | 192 to 194 °C | CCCCc1cc2c(cc1/C=C/c1ccc(C(=O)O)cc1)C(C)(C)CCC2(C)C
31 | 66 to 68 °C | c1cc(N2CCCCC2)ccc1OC12CCC(CC1)CC2
32 | 190 °C | CCOC(=O)c1nc(NC(C)=O)sc1Cc1ccc(SCC)cc1
33 | 188 °C | O=C1C=CC(c2ccccc2)C2(c3ccccc3)CN(C(=O)Cc3ccccc3)CC12 (racemic)
34 | 88.5 to 89.5 °C | CN(C)C(=O)COc1cccc(C(F)(F)F)c1
35 | 86 to 88 °C | CCOC(=O)c1cc(Cl)c(Cl)c(-c2cc(C)no2)c1C
36 | 242 °C | Cc1ccc(-c2cc(C(=O)/C=C/c3ccc(C(=O)O)cc3)cc3c2C(C)(C)CCC3(C)C)cc1
37 | 82 to 84 °C | CCCCOC(=O)NC(=O)C(c1ccccc1)c1ccccc1
38 | 128 to 129 °C | CC(C)(C)OC(=O)C=Cc1cnc2ccccc2c1

Row | melting point | SMILES
39 | 203 to 204 °C | Cc1cc(C(=O)Nc2ccc(S(=O)(=O)C(F)(F)F)cc2Cl)c(O)c(C23CC4CC(CC(C4)C2)C3)c1
40 | > 300 °C | NC(Cc1ccc(OCc2ccccc2)cn1)C(=O)Nc1ccc(CCCC(=O)NO)cc1 (configuration not stated)
41 | 73 to 75 °C | CCn1ccc(C(=O)c2cc(C(C)(C)C)c(O)c(C(C)(C)C)c2)c1
42 | 71 to 79 °C | CC(=O)OC1CCCC(n2c(Br)nc3cc(Cl)c(Cl)cc32)C1OC(C)=O (configuration not stated)
43 | 202 °C | Cc1ccc(C(=O)N[C@H]2CC[C@H](CCN3CCC(c4cccc5c4CCO5)CC3)CC2)cn1
44 | 180 to 181 °C | CO[C@@]1(C)[C@@H](NC(=O)C(F)(F)F)CC(OC(=O)c2ccc([N+](=O)[O-])cc2)O[C@H]1C (some centres not stated)
45 | 134 °C | CN(CCOC1CCCCO1)c1cc(NC(=O)OC(C)(C)C)c([N+](=O)[O-])cc1C#Cc1ccc(F)cc1 (racemic)
46 | 143 to 144 °C | COc1ccc2c(c1)OC(C)(C)C(NC(=O)c1cc(F)ccc1OC)C2=O (configuration not stated)
47 | 156 to 157 °C | CN(C)c1cccc([N+](=O)[O-])c1CC=NNC(N)=O
48 | 271 to 272 °C | Cc1oc(-c2ccccc2)nc1COc1ccc2c(c1)CCC(C=C1SC(=O)NC1=O)=C2
49 | 182 to 184 °C | Cc1nc(N2C(=O)N(CCc3ccc(F)cc3)CC2O)sc1C(=O)NCc1cccnc1 (configuration not stated)
50 | 163 to 164 °C | O=C1CC(C(F)(F)F)CC(=O)N1c1ccc(Br)cc1
51 | 60 to 62 °C | COC(=O)C(=CNC(C)=O)C(C)=O
52 | > 260 °C | CC(=O)Nc1nc(N)nc(-c2ccc(S(=O)(=O)c3ccccc3)cc2)n1
53 | 46 °C | CCOC(=O)C(=O)c1ccc(SCC2CC2)[nH]1
54 | 118 to 119 °C | CC(=O)NC(Cc1ccc(Cl)c(Cl)c1)C(=O)OCc1cc(C)cc(C)c1 (configuration not stated)
55 | 140 °C | NC(=O)n1nc(-c2ccc(F)cc2)cc1N
56 | 69 °C | CCCc1ccc(C(=O)O)c(F)c1F

The next lines start with the compound.

Row | SMILES | melting point
57 | N#CNc1ccccc1N1CCOCC1 | 175 to 176 °C
58 | CCCOC(Nc1ccccc1)(OCCC)c1ccnc(C(=O)c2ccc(Cl)cc2)c1 | 140 to 141 °C
59 | O=[N+]([O-])c1cc(CBr)cc([N+](=O)[O-])c1 | 93 to 94 °C
60 | NN(c1ccccc1)c1cc(Cl)nc(Cl)n1 | 114 to 116 °C
61 | O=C1C(=O)N(C(c2ccccc2)c2ccccc2)c2cccc(F)c21 | 168 to 171 °C
62 | CCc1nnc(-c2ncc3[nH]c4cccc(OCc5ccccc5)c4c3c2COC)o1 | 230 °C
63 | COc1ccc(N2CCN(Cc3n[nH]c4ccccc34)CC2)cc1 | 167 to 168 °C
64 | CC1c2ccccc2N(CCN2CC=C(c3c[nH]c4cc(F)ccc34)CC2)S(=O)(=O)N1C (configuration not stated) | 105 to 108 °C
65 | C1=Cc2cc3ccccc3cc2CS1 | 84 °C
66 | O=C(Nc1ccc(C(=O)N2CCC=Cc3ccccc32)cc1)c1ccccc1Cl | 205 to 207 °C
67 | COc1ccc2c(c1)C13CCN(C)C(C2)C1(O)CCOC3 (single isomer, unassigned; (+)) | 108 to 110 °C
68 | CCCCn1nc(C=O)nc1Cc1ccc(-c2ccccc2-c2nnn[nH]2)nc1 | 167 to 168 °C
69 | CCNCc1ccc(O)c(C(CCN(C(C)C)C(C)C)c2ccccc2)c1 (configuration not stated) | 140 to 142 °C
70 | OC(Cn1cncn1)(Cn1cnc(C=Cc2ccc(OC(F)(F)F)cc2)n1)c1ccc(F)cc1F (configuration not stated) | 149 to 151 °C
71 | COC(=O)c1ncn2c1[C@@H]1CCCN1C(=O)c1ccccc1-2 | 165 to 167 °C
72 | Oc1ccc2cc(Br)ccc2c1-c1c(O)ccc2cc(Br)ccc12 | 109 to 114 °C
73 | CC(Cl)c1nnc2n1-c1ccc(Cl)cc1C(c1ccccc1)=NC2 (configuration not stated) | 154 to 156 °C
74 | CC(C)=CCCC(C)CCCC(C)=CC=CC(C)=CC(=O)O (configuration not stated) | 60 to 62 °C
75 | CCC(CC)c1nc(CN(C)C(=O)N[C@H](C(=O)N[C@@H](Cc2ccccc2)C[C@H](O)[C@H](Cc2ccccc2)NC(=O)OCc2cncs2)C(C)C)cs1 | 64 to 66 °C
76 | CNc1cccc(-c2csc(NC(=N)N)n2)c1 | 198 to 200 °C
77 | COc1ccc(C2(C#N)C3CC4CC(C3)CC2C4)cc1 (configuration not stated) | 165 to 166 °C

Row | SMILES | melting point
78 | CC(C)N(C[C@H](O)CO)S(C)(=O)=O | 67 to 70 °C
79 | CC(O)Cn1cc(C2=C(c3cn(CC(C)O)c4ccccc34)C(=O)NC2=O)c2ccccc21 (configuration not stated) | 133 to 135 °C
80 | c1ccc(COc2ccc(N3CCN(Cc4nc5ccccc5[nH]4)CC3)nc2)cc1 | 62 to 64 °C
81 | O=S1N=C(NCCCN(Cc2ccccc2)c2ccccn2)C(NCc2ccccn2)=N1 (configuration not stated) | 139 to 140 °C
82 | N#CCCCCCCCn1c(-c2ccccc2)nc(-c2ccccc2)c1-c1ccccc1 | 93 to 94 °C
83 | CN(c1ncccc1[N+](=O)[O-])C1CCN(Cc2ccccc2)CC1 | 92 to 95 °C
84 | Fc1cccc(C(c2ccccc2)(c2cccc(F)c2)n2ccnc2)c1 | 165 to 167 °C
85 | O=CNNc1ccc(NC(=S)NCc2ccccc2)cc1 | 152 to 154 °C
86 | COc1cc2c(c3c1OC(C)(C)C3)C(c1cccc(C(=O)Nc3c(Cl)cncc3Cl)c1)=NC(C)(C)C2 | 227 to 228 °C
87 | Oc1ccc2ccc(OCc3nc4ccccc4s3)cc2c1 | 205 to 207 °C
88 | O=C(c1ccccc1)c1ccc(-c2nc(CCl)co2)cc1 | 138 to 139 °C
89 | COc1ccc(C(=O)Nc2ccccc2)cc1NC(=S)Nc1ccc(Cl)c(C(F)(F)F)c1 | 172 to 173 °C
90 | N#CC(=Cc1ccncc1)c1cccnc1 | 150 to 152 °C
91 | CN(C)CC1CCCCN1C1c2ccccc2Oc2ccccc21 (configuration not stated) | 81 to 83 °C
92 | CCCNc1nc(C#N)c(C#N)nc1-c1cccc(Cl)c1 | 120 to 121 °C
93 | CC(Cn1cc(-c2ccccc2)c2ccccc2c1=O)NCc1ccccc1 (configuration not stated) | 118 °C
94 | O=C(c1cccc(C(F)(F)F)c1)c1ncccc1C(O)=NNc1ccc(C(F)(F)F)cc1 | 127 to 129 °C
95 | O=C(Nc1ccccc1-n1cccn1)c1cccc2c1C(=O)c1ccccc1-2 | 164 to 166 °C
96 | CCCCCCCCCCCC(=O)NC(C)C(=O)NC(CCC(=O)NC(CCCCN)C(=O)O)C(=O)O (configuration not stated) (Lauroyl-Ala-[γGlu]-Lys-OH; configuration not given here) | 180 to 186 °C
97 | CC(C)(C)c1nnc(-c2nn(-c3ccc(F)cc3F)c3c2C2CCC3C2)s1 (configuration not stated) | 109 to 111 °C
